Laboratory results taken from patent publication US20250025461A1, “TREATMENT OF SEVERE AND UNCOMPLICATED MALARIA” (PURDUE RESEARCH FOUDATION, priority 2021, published 2025).
Counter-ions that a name gives are not always drawn.

Tested on: P. falciparum malaria
Test: Phase 1/2 open-label imatinib monotherapy trial vs standard-of-care (SOC)
Type: in vivo, human
Procedure: Generic imatinib mesylate was purchased from TEVA Pharmaceuticals (Jerusalem, Israel) and was provided to patients in two 200 mg tablets per dose to conform with the usual quantity of imatinib indicated for treatment of chronic myelogenous leukemia. CV-Artecan, the standard-of-care (SOC) for treatment of P. falciparum malaria in Vietnam was purchased from OPC Pharmaceutical (Ho Chi Minh City, Vietnam) and was administered to patients as a tablet containing 40 mg dihydroartemisinin plus 320 mg piperaquine phosphate.
P. falciparum-infected males of age 16-55 years with no complicating co-morbidities that had not received an anti-malarial drug within the previous 4 weeks were eligible for two trials, i.e., imatinib monotherapy and imatinib plus SOC (Im+SOC) triple combination therapy. Those individuals who met eligibility criteria and provided informed written consent were enrolled in the trial.
The phase 1/2 “imatinib monotherapy trial” was an open-label trial aimed at determining the safety and tolerability of imatinib in adult male patients with uncomplicated P. falciparum malaria. Patients were randomly assigned to either a standard-of-care (SOC) control arm (n=8) in which they received 40 mg dihydroartemisinin plus 320 mg piperaquine phosphate orally twice (12 hours apart) on the first day and then once a day on the following 2 days, or an imatinib monotherapy arm (n=7) in which they received 400 mg of imatinib mesylate orally with a meal and full glass of water once a day for five days.
During both trials, patient temperatures and peripheral blood parasite levels were monitored before, during and after the trial on days 0, 1, 2, 3, 5, 7, 28, and 42. Patients were also examined for the usual symptoms of P. falciparum malaria, including fever, chills, headache, fatigue, anorexia, and mild diarrhea.
Primary endpoints for both studies were safety and tolerability. Secondary endpoints were reduction in parasitemia for the imatinib monotherapy study and both reduction in parasitemia and decline in pyrexia for the Im+SOC study. Safety and tolerability were assessed at protocol-specified time points and adverse events were classified as toxicities not normally associated with P. falciparum malaria, including edema, rashes, and severe diarrhea, etc. […] Attribution of imatinib to adverse events was assessed using a 5-point scale: not related, unlikely related, possibly related, probably related, and definitely related.
A mixed ANOVA was conducted to determine the effect of drug treatment on parasitemia and pyrexia. Post-hoc multi-comparison testing was used to determine which time points were statistically different. […] SOC treatment cohorts from each individual trial were analyzed separately. […]

## Cc1ccc(NC(=O)c2ccc(CN3CCN(C)CC3)cc2)cc1Nc1nccc(-c2cccnc2)n1 [imatinib, imatinib mesylate]
400 mg imatinib orally once a day for five days
  drug-related toxicity (analyses of blood parameters and body temperatures): no evidence of drug-related toxicity
Imatinib alone, n=7
  participants who experienced a rise in parasitemia and had to be transferred to SOC: two of the seven
p-value=0.7029
  apparent accelerated decrease in pyrexia vs SOC (mixed ANOVA, FIG. 1D): did not achieve statistical significance
Peripheral blood, before, during and after treatment, n=7
  number of parasitized cells per microliter of blood (FIG. 1A): decrease
